Results as given in ChEMBL document CHEMBL1201862, “PubChem BioAssay data set” (2004).
Each block holds one compound with its values, some of them ahead of it. The source made the active and inactive calls.

Legend:
[1] = tested on: HeLa; assay: HeLa cell cytotoxicity, dose response, cytotoxicity control for MITF activator project, CellTiter-Glo luminescence, cherry-pick samples (AID 540259); format: functional, cell-based; conditions: Homo sapiens
[2] = target: T1, High affinity choline transporter 1 (Homo sapiens, UniProt Q9GZV3); assay: CHT inhibitors, dose response, cell-based, 5-point CRC, membrane potential dye (AID 504840); format: functional
T1 sequence (Q9GZV3 whole entry): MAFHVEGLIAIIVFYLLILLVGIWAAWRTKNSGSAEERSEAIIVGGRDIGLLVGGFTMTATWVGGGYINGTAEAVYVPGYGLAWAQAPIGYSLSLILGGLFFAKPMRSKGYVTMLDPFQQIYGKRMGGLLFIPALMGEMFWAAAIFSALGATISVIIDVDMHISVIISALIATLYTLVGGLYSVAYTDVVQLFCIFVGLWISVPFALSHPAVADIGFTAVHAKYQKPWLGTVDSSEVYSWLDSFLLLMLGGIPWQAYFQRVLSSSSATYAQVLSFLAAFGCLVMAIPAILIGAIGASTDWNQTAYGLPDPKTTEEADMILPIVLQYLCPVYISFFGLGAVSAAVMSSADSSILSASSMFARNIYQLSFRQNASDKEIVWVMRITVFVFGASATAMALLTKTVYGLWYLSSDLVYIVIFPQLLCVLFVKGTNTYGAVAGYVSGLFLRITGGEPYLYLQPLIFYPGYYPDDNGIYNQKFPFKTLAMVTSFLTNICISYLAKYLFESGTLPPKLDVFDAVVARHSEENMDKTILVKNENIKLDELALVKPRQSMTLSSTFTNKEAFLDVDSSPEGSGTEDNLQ

[3] = tested on: H9c2; assay: cells; format: functional, cell-based; conditions: Rattus norvegicus, H9c2, Myocardium;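 note: confirmatory concentration-response retest of ultra-high-throughput screening hits for modulation of myocardial damage; cell death induced by hydrogen peroxide oxidative stress; compound pretreatment for 60 min then peroxide exposure for 2 h; potency is for protecting the cells against peroxide damage rather than for killing them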
[4] = target: T2, DNA repair and recombination protein RAD54-like (Homo sapiens, UniProt Q92698); assay: inhibitors of human RAD54 branch migration, confirmation, biochemical, fluorescence, cherry-picked samples, dose series (AID 651657); format: functional
T2 sequence (Q92698 whole entry): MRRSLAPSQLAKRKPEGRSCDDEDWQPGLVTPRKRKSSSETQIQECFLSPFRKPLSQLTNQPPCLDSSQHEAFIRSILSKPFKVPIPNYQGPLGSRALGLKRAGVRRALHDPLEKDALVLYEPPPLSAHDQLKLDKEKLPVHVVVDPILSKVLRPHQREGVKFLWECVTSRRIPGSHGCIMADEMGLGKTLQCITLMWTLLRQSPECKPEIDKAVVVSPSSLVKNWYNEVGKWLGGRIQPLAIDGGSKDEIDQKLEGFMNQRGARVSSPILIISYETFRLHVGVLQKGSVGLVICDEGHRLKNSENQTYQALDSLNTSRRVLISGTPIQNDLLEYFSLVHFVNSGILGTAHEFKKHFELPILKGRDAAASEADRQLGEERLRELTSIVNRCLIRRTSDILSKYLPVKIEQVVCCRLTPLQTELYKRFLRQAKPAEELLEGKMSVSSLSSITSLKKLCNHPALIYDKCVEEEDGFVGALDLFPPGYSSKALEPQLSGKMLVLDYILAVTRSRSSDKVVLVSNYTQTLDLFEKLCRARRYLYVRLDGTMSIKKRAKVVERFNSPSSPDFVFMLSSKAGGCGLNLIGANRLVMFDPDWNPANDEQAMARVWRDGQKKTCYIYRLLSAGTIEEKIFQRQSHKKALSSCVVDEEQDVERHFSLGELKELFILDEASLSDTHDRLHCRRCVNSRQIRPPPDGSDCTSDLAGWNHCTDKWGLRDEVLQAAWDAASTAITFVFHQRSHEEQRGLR

[5] = target: T3, Aurora kinase A (Homo sapiens, UniProt O14965); format: functional;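 note: value from the Navigating the Kinome kinase panel profiling, panel entry STK6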
T3 sequence (O14965 whole entry): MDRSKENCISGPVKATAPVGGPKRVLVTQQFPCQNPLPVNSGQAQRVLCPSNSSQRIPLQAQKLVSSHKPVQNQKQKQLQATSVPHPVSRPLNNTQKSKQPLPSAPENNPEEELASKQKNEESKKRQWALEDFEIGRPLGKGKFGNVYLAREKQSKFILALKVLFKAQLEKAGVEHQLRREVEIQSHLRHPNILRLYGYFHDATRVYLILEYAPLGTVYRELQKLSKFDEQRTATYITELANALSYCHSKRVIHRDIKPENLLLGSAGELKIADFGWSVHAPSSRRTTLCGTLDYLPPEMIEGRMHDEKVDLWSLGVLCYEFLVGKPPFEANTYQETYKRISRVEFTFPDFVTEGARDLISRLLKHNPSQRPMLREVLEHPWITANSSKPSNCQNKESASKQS

[6] = target: Vascular endothelial growth factor receptor 2 (Homo sapiens, UniProt P35968); format: functional
Vascular endothelial growth factor receptor 2, sequence (P35968 whole entry): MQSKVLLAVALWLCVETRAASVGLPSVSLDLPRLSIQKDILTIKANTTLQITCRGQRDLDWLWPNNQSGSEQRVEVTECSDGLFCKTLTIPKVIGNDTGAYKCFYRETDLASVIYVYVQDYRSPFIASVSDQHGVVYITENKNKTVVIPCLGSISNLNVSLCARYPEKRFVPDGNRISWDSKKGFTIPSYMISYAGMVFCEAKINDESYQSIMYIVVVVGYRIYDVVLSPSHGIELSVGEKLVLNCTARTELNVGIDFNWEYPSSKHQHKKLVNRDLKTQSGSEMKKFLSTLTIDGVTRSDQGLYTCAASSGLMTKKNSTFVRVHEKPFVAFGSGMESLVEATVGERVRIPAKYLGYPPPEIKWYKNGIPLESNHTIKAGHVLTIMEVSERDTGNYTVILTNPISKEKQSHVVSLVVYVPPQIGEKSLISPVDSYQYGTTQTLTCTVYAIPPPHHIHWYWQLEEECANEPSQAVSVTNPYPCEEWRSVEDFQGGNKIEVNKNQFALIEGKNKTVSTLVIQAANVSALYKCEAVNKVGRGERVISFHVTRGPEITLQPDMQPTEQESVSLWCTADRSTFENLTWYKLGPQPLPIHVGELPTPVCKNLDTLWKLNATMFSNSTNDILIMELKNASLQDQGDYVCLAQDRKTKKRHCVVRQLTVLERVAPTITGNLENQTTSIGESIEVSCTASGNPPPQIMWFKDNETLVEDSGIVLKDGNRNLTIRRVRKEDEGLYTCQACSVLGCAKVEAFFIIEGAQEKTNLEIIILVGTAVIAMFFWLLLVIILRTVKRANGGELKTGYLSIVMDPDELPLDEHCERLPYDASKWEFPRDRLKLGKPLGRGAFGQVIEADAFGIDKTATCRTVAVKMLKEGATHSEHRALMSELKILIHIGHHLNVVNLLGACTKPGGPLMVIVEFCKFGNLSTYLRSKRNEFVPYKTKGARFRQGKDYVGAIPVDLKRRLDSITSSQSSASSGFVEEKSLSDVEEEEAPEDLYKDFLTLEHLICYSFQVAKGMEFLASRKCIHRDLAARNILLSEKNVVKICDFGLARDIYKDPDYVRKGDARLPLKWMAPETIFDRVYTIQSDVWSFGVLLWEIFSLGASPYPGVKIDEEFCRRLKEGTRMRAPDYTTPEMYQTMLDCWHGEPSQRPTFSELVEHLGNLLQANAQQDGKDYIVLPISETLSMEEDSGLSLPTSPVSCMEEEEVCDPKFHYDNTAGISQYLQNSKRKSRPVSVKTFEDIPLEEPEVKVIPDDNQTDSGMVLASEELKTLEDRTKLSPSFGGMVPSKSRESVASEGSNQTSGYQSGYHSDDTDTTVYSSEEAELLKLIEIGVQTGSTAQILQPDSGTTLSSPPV

[7] = target: Aurora kinase B (Homo sapiens, UniProt Q96GD4); format: functional
Aurora kinase B, sequence (Q96GD4 whole entry): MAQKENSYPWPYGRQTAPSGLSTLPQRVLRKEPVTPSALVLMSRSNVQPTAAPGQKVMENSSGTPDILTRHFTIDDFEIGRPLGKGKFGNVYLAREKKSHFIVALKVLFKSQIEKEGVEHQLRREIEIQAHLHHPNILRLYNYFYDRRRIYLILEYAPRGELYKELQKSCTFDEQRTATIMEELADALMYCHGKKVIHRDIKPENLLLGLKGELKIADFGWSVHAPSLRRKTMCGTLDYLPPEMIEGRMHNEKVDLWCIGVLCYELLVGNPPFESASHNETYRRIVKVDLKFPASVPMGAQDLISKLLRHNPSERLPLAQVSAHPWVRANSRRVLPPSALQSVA

[8] = intracellular Trypanosoma cruzi inhibitors in host cells – cell-based, plate reader, cherry-pick samples, set 3, dose response (AID 651818); format: functional;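 note: compounds incubated with infected cells for about four days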
[9] = target: Glucose-6-phosphate 1-dehydrogenase (Homo sapiens, UniProt P11413); assay: human G6PD enzyme inhibitors, dose response, selectivity assay for P. falciparum G6PD inhibitor project, biochemical, fluorescence (AID 504792); format: functional
Glucose-6-phosphate 1-dehydrogenase, sequence (P11413 whole entry): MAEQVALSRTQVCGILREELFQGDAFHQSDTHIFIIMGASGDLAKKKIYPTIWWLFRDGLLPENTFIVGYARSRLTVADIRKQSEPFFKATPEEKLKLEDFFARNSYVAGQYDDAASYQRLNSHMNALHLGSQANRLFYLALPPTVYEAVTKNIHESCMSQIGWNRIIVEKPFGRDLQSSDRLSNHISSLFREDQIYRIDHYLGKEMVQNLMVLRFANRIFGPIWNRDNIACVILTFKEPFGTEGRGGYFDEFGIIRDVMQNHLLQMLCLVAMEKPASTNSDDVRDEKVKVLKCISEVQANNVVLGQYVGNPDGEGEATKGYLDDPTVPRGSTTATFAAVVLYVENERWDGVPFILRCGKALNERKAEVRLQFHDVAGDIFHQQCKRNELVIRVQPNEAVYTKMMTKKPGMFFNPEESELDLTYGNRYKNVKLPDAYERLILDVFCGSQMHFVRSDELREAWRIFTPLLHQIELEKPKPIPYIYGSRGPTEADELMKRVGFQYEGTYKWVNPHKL

[10] = target: T4, Cysteine protease ATG4B (Homo sapiens, UniProt Q9Y4P1); format: functional;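 note: Fluorescence-based dose-response confirmation assay measuring inhibition of ATG4B activity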
T4 sequence (Q9Y4P1 whole entry): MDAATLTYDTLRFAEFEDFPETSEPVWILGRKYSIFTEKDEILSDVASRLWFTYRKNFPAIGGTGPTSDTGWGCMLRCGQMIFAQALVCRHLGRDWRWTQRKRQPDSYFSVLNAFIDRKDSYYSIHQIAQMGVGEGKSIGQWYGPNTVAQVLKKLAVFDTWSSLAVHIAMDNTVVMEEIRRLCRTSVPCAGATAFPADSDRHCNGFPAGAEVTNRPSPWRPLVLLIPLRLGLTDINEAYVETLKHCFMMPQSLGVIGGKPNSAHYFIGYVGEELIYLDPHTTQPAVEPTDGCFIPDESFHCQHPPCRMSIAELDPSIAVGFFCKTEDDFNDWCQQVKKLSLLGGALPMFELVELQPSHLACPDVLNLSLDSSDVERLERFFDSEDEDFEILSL

[11] = target: Phospholipase A2 (Homo sapiens, UniProt P04054); format: functional;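 note: confirmatory dose-response counterscreen on phospholipase A2, testing hits that came from an ultra-high-throughput screen for ATG4B inhibitors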
Phospholipase A2, sequence (P04054 whole entry): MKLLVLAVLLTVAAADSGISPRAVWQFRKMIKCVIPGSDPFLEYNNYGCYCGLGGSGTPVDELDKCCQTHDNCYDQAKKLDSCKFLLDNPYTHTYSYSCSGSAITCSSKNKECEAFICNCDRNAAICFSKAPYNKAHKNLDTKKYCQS

[12] = inhibitors of intracellular T. cruzi replication, confirmation, NIH3T3 host cells, beta-gal luminescence (AID 2044); format: functional, cell-based;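 note: intracellular parasites grown in NIH/3T3 mouse fibroblasts as host cells; luminescent beta-galactosidase reporter signal from transgenic T. cruzi replicating inside host cells; inhibitors lower the luminescence signal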
[13] = cytotoxicity toward NIH3T3 fibroblasts, dose response, counter-screen, cell-based, ATP luminescence, mouse fibroblasts (AID 2010); format: functional;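 note: cells exposed to compound for about 90 hours before reading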
[14] = target: Dual specificity tyrosine-phosphorylation-regulated kinase 1A (Rattus norvegicus, UniProt Q63470); format: biochemical, Homo sapiens

SMILES: c1cc(-c2cc3cc4c(cc3cn2)OCO4)cs1
AC50 [1]: 141 µM (active)

SMILES: CC(=O)c1ccc(N2CCN(C(=O)C3CCCN(c4ncnc5c4nc4n5CCCCC4)C3)CC2)cc1 (configuration not stated)
IC50 [2]: 18.2 µM (active)
IC50 [3]: > 79 µM (inactive)

AC50 [4]: 72.1 µM (active)
SMILES: CN1CCN(c2ccc(CNC(=O)C3Cc4c(-c5ccc(Cl)cc5)ccnc4O3)cc2)CC1 (configuration not stated)

Ki [5]: 0.794 µM (active)
Ki [6]: > 5.01 µM (inactive)
Ki [7]: 0.0501 µM (active)
SMILES: CCCCN1CCN(c2ccc(-c3nc4c(C(N)=O)cccc4[nH]3)cc2)CC1

Ki [5]: 0.0501 µM (active)
Ki [7]: 0.251 µM (active)
SMILES: COc1ccc(-c2cc(-c3ccccc3)c3cc(Cl)ccc3n2)cc1

Ki [5]: 0.631 µM (active)
Ki [6]: > 5.01 µM (inactive)
Ki [7]: 0.0251 µM (active)
SMILES: NC(=NO)c1ccccc1S(=O)(=O)Nc1ccc2c(c1)C(=NO)c1ccccc1-2

SMILES: C[C@H]1CN([C@@H](C)CO)C(=O)c2cccc(NC(=O)c3ccncc3)c2O[C@@H]1CN(C)Cc1ccc2c(c1)OCO2
AC50 [8]: 0.277 µM (active)

SMILES: Cc1ccc(S(=O)(=O)Nc2ccc3c(c2)CC(=O)N([C@H](C)CO)C[C@@H](C)[C@H](CN(C)Cc2ccc4c(c2)OCO4)O3)cc1
AC50 [8]: 4.35 µM (active)

SMILES: C[C@@H]1CN([C@H](C)CO)C(=O)c2cccc(NC(=O)Nc3ccc(C(F)(F)F)cc3)c2O[C@@H]1CN(C)C(=O)NC1CCCCC1
AC50 [8]: 5.14 µM (active)

IC50 [9]: > 80 µM (inactive)
SMILES: NC(=O)N/N=C/c1ccc(-n2nncc2-c2ccc(Cl)cc2)cc1

IC50 [10]: 8.08 µM (active)
IC50 [11]: 33.5 µM (inactive)
SMILES: Oc1c(Br)cc(Br)cc1/C=N/n1c(S)nnc1-c1ccccc1

SMILES: C/C(Cn1nnc([N+](=O)[O-])n1)=N\NC(=O)c1cccc(Cl)c1
EC50 [12]: 0.416 µM (active)
EC50 [13]: > 60 µM (not active)
IC50 [9]: > 80 µM (inactive)

AC50 [14]: 10.5 µM (active)
SMILES: C[N+](C)(CCOc1ccccc1)Cc1ccccc1
